This passage reports IC50 and EC50 results from patent US20160002248A1, “GLS1 INHIBITORS FOR TREATING DISEASE” (Board of Regents, The University of Texas System, priority 2014, published 2016).

pEC50, pIC50: −log10 of the molar value.

As usually defined, the pIC50 is the negative decadic logarithm of the IC50, by convention in mol/L. For orientation: pEC50 means the negative decadic logarithm of the EC50, by convention in mol/L. High values mean a low EC50, low ones a high EC50.

The target in experiment [1] is T1, purified recombinant human GAC (GLS1) (Homo sapiens, UniProt O94925).
T1 sequence (O94925 55-598 isoform O94925-3 limits assumed): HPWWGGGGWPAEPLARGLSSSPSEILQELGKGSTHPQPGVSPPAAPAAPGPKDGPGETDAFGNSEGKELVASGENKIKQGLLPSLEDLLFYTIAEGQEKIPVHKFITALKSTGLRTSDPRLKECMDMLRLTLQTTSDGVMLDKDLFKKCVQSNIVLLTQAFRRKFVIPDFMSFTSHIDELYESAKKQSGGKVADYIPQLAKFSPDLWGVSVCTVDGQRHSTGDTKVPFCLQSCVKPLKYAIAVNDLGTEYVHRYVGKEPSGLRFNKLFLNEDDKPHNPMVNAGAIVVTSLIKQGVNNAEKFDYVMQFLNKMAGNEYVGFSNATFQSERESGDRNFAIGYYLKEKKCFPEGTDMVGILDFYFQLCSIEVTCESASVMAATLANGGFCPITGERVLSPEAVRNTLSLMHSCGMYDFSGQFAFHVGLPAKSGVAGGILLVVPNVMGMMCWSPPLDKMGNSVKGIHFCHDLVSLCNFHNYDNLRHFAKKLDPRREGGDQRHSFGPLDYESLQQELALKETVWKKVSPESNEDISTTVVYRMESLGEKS
The experiment in a line: GLS1 Enzymatic Activity Assay (dual-coupled enzymatic assay). The class given is biochemical. As to the method:
GLS1 Enzymatic Activity Assay
The inhibition of purified recombinant human GAC by varying concentrations of inhibitors is assessed via a dual-coupled enzymatic assay. The glutamate produced by the glutaminase reaction is used by glutamate oxidase to produce α-ketoglutarate, ammonia, and hydrogen peroxide, with this hydrogen peroxide subsequently being used by horseradish peroxidase to produce resorufin in the presence of Amplex UltraRed. The assay buffer consisted of 50 mM Hepes (pH 7.4), 0.25 mM EDTA and 0.1 mM Triton X-100. GAC was incubated with potassium phosphate (10 minutes at room temperature) prior to incubation with inhibitor (10 minutes at room temperature). The final reaction conditions were as follows: 2 nM GAC, 50 mM potassium phosphate, 100 mU/mL glutamate oxidase (Sigma), 1 mM glutamine (Sigma), 100 mU/mL horseradish peroxidase (Sigma), 75 μM Amplex UltraRed (Life Technologies), and 1% (v/v) DMSO. The production of resorufin was monitored on a Perkin Elmer Envision plate reader (excitation 530 nm, emission 590 nm) either in a kinetics or endpoint mode (at 20 minutes). IC50 values were calculated using a four-parameter logistic curve fit.

The subject of a further experiment is A549 cells. Nature of the experiment: Proliferation Assay (A549 cell viability, Cell Titer Fluor). The experiment is classed as cell-based. The conditions noted are these: Homo sapiens, 72 hours. The procedure: A549 cells were routinely maintained in RPMI 1640 media (Gibco catalog number 11875-093) supplemented with 10% dialyzed fetal bovine serum using a humidified incubator (37° C., 5% CO2 and ambient O2). In preparation for the viability assay, cells were inoculated into 384-well black CulturPlates (Perkin Elmer) at a density of 1000 cells/well in a volume of 40 uL. Following a 24-hour incubation at 37° C., 5% CO2 and ambient O2, cells were treated with compound (10 uL) in a final DMSO concentration of 0.5% (v/v). The microplates were then incubated for 72 hours (37° C., 5% CO2 and ambient O2). Cell Titer Fluor (Promega) was subsequently added (10 uL of 6× reagent) and mixed for 15 minutes at room temperature. The plates were then incubated for 30 minutes (37° C., 5% CO2 and ambient O2) and fluorescence was subsequently read on the Perkin Elmer Envision plate reader. EC50 values were calculated using a four-parameter logistic curve fit.

Take `COc1ccc(CNC(=O)c2cn(CCCCc3cc4cc(C5CC5)[nH]c4nn3)nn2)cn1` [Example 42, 1-(4-{6-cyclopropyl-7H-pyrrolo[2,3-c]pyridazin-3-yl}butyl)-N-[(6-methoxypyridin-3-yl)methyl]-1H-1,2,3-triazole-4-carboxamide]: the pIC50 in experiment [1] was more than 7.00. The pEC50 with A549 cells is 5.30 to 6.30.

With `O=C(NCc1cccc(OCC(F)(F)F)n1)c1cn(CCCCc2cc3cc(C4CC4)[nH]c3nn2)nn1` [Example 43, 1-(4-{6-cyclopropyl-7H-pyrrolo[2,3-c]pyridazin-3-yl}butyl)-N-{[6-(2,2,2-trifluoroethoxy)pyridin-2-yl]methyl}-1H-1,2,3-triazole-4-carboxamide], the pIC50 in experiment [1] is more than 7.00. Further, in the experiment on A549 cells, the pEC50 is 5.30 to 6.30.

Consider `COc1cc(CNC(=O)c2cn(CCCCc3cc4cc(C5CC5)[nH]c4nn3)nn2)ccn1` [Example 44, 1-(4-{6-cyclopropyl-7H-pyrrolo[2,3-c]pyridazin-3-yl}butyl)-N-[(2-methoxypyridin-4-yl)methyl]-1H-1,2,3-triazole-4-carboxamide], for which the pIC50 in experiment [1] is 6.30 to 7.00. This molecule showed a negative logarithm of the EC50 (pEC50) in the experiment with A549 cells of 5.30 to 6.30.

On to `Cn1cnc(CNC(=O)c2cn(CCCCc3cc4cc(C5CC5)[nH]c4nn3)nn2)c1` [Example 45, 1-(4-{6-cyclopropyl-7H-pyrrolo[2,3-c]pyridazin-3-yl}butyl)-N-[(1-methyl-1H-imidazol-4-yl)methyl]-1H-1,2,3-triazole-4-carboxamide], for which, in experiment [1], the pIC50 is 6.30 to 7.00. Also, the pEC50 in the experiment on A549 cells is 5.30 to 6.30.

On to `Cc1cncc(CNC(=O)c2cn(CCCCc3cc4cc(C5CC5)[nH]c4nn3)nn2)c1` [Example 46, 1-(4-{6-cyclopropyl-7H-pyrrolo[2,3-c]pyridazin-3-yl}butyl)-N-[(5-methylpyridin-3-yl)methyl]-1H-1,2,3-triazole-4-carboxamide], for which the pIC50 in experiment [1] was more than 7.00. In the experiment with A549 cells, this molecule gave a pEC50 of 5.30 to 6.30.

As for `Cc1ccncc1CNC(=O)c1cn(CCCCc2cc3cc(C4CC4)[nH]c3nn2)nn1` [Example 47, 1-(4-{6-cyclopropyl-7H-pyrrolo[2,3-c]pyridazin-3-yl}butyl)-N-[(4-methylpyridin-3-yl)methyl]-1H-1,2,3-triazole-4-carboxamide], the pIC50 in experiment [1] is 6.30 to 7.00. In the experiment with A549 cells, this molecule showed a pEC50 of 5.30 to 6.30.

Consider `COc1cncc(CNC(=O)c2cn(CCCCc3cc4cc(C5CC5)[nH]c4nn3)nn2)c1` [Example 48, 1-(4-{6-cyclopropyl-7H-pyrrolo[2,3-c]pyridazin-3-yl}butyl)-N-[(5-methoxypyridin-3-yl)methyl]-1H-1,2,3-triazole-4-carboxamide], for which the negative logarithm of the IC50 (pIC50) in experiment [1] was more than 7.00. Further, the pEC50 with A549 cells was 5.30 to 6.30.

`COc1ncccc1CNC(=O)c1cn(CCCCc2cc3cc(C4CC4)[nH]c3nn2)nn1` [Example 49, 1-(4-{6-cyclopropyl-7H-pyrrolo[2,3-c]pyridazin-3-yl}butyl)-N-[(2-methoxypyridin-3-yl)methyl]-1H-1,2,3-triazole-4-carboxamide]: the pIC50 in experiment [1] was 5.30 to 6.30. This molecule showed a negative logarithm of the EC50 (pEC50) in the experiment on A549 cells of 5.30 to 6.30.

In the case of `Cc1cc(CNC(=O)c2cn(CCCCc3cc4cc(C5CC5)[nH]c4nn3)nn2)nn1C` [Example 50, 1-(4-{6-cyclopropyl-7H-pyrrolo[2,3-c]pyridazin-3-yl}butyl)-N-[(1,5-dimethyl-1H-pyrazol-3-yl)methyl]-1H-1,2,3-triazole-4-carboxamide], the pIC50 in experiment [1] was 6.30 to 7.00. In the experiment on A549 cells, this molecule showed a negative logarithm of the EC50 (pEC50) of 5.30 to 6.30.

Take `Cn1cc(CNC(=O)c2cn(CCCCc3cc4cc(C5CC5)[nH]c4nn3)nn2)cn1` [Example 51, 1-(4-{6-cyclopropyl-7H-pyrrolo[2,3-c]pyridazin-3-yl}butyl)-N-[(1-methyl-1H-pyrazol-4-yl)methyl]-1H-1,2,3-triazole-4-carboxamide]: in experiment [1], the pIC50 is 6.30 to 7.00. Also, the pEC50 with A549 cells is 5.30 to 6.30.

In the case of `Cn1ccc(CNC(=O)c2cn(CCCCc3cc4cc(C5CC5)[nH]c4nn3)nn2)n1` [Example 52, 1-(4-{6-cyclopropyl-7H-pyrrolo[2,3-c]pyridazin-3-yl}butyl)-N-[(1-methyl-1H-pyrazol-3-yl)methyl]-1H-1,2,3-triazole-4-carboxamide], the pIC50 in experiment [1] is 6.30 to 7.00. The pEC50 in the experiment with A549 cells is 5.30 to 6.30.

For the molecule `N#Cc1ccc(CNC(=O)c2cn(CCCCc3cc4cc(C5CC5)[nH]c4nn3)nn2)cn1` [Example 53, N-[(6-cyanopyridin-3-yl)methyl]-1-(4-{6-cyclopropyl-7H-pyrrolo[2,3-c]pyridazin-3-yl}butyl)-1H-1,2,3-triazole-4-carboxamide], in experiment [1], the pIC50 was 6.30 to 7.00. This molecule had a pEC50 in the experiment on A549 cells of 5.30 to 6.30.

As for `Cn1ccnc1CNC(=O)c1cn(CCCCc2cc3cc(C4CC4)[nH]c3nn2)nn1` [Example 54, 1-(4-{6-cyclopropyl-7H-pyrrolo[2,3-c]pyridazin-3-yl}butyl)-N-[(1-methyl-1H-imidazol-2-yl)methyl]-1H-1,2,3-triazole-4-carboxamide], in experiment [1], the pIC50 was 5.30 to 6.30. The molecule also had a pEC50 with A549 cells of less than 5.30.

For the molecule `Cc1cccc(CNC(=O)c2cn(CCCCc3cc4cc(C5CC5)[nH]c4nn3)nn2)n1` [Example 55, 1-(4-{6-cyclopropyl-7H-pyrrolo[2,3-c]pyridazin-3-yl}butyl)-N-[(6-methylpyridin-2-yl)methyl]-1H-1,2,3-triazole-4-carboxamide], the pIC50 in experiment [1] is 6.30 to 7.00. In the experiment with A549 cells, this molecule had a pEC50 of 5.30 to 6.30.

Consider `Cc1ccc(CNC(=O)c2cn(CCCCc3cc4cc(C5CC5)[nH]c4nn3)nn2)nc1` [Example 56, 1-(4-{6-cyclopropyl-7H-pyrrolo[2,3-c]pyridazin-3-yl}butyl)-N-[(5-methylpyridin-2-yl)methyl]-1H-1,2,3-triazole-4-carboxamide], for which the pIC50 in experiment [1] is 6.30 to 7.00. The molecule also showed a pEC50 with A549 cells of 5.30 to 6.30.

`O=C(Cc1cccc(OC(F)(F)F)c1)Nc1nnc(CCCCc2cc3cc(Cc4ccccc4)[nH]c3nn2)s1` [Example 58, N-[5-(4-{6-benzyl-7H-pyrrolo[2,3-c]pyridazin-3-yl}butyl)-1,3,4-thiadiazol-2-yl]-2-[3-(trifluoromethoxy)phenyl]acetamide]: the pIC50 in experiment [1] was more than 7.00. This molecule also showed a pEC50 in the experiment with A549 cells of 6.30 to 7.00.

With `CC(C)(C)OC(=O)NCc1cccc(CC(=O)Nc2nnc(CCCCc3cc4cc(Cc5ccccc5)[nH]c4nn3)s2)c1` [Example 59, tert-butyl N-{[3-({[5-(4-{6-benzyl-7H-pyrrolo[2,3-c]pyridazin-3-yl}butyl)-1,3,4-thiadiazol-2-yl]carbamoyl}methyl)phenyl]methyl}carbamate], the pIC50 in experiment [1] is more than 7.00. The same molecule had a pEC50 in the experiment on A549 cells of more than 7.00.

Turning to `O=C(Nc1nnc(CCCCc2cc3cc(Cc4ccccc4)[nH]c3nn2)s1)[C@H](O)c1ccccc1` [Example 60, (2R)-N-[5-(4-(6-benzyl-7H-pyrrolo[2,3-c]pyridazin-3-yl}butyl)-1,3,4-thiadiazol-2-yl]-2-hydroxy-2-phenylacetamide], in experiment [1], the pIC50 was more than 7.00. In the experiment with A549 cells, this molecule had a pEC50 of 5.30 to 6.30.

On to `O=C(Nc1nnc(CCCCc2cc3cc(Cc4ccccc4)[nH]c3nn2)s1)OC1CCOCC1` [Example 61, oxan-4-yl N-[5-(4-{6-benzyl-7H-pyrrolo[2,3-c]pyridazin-3-yl}butyl)-1,3,4-thiadiazol-2-yl]carbamate], for which the pIC50 in experiment [1] was more than 7.00. In the experiment with A549 cells, this molecule showed a negative logarithm of the EC50 (pEC50) of 5.30 to 6.30.

Regarding `O=C(Cc1ccccc1)Nc1ccn(CCCCc2cc3cc(Cc4ccccc4)[nH]c3nn2)c(=O)n1` [Example 62, N-[1-(4-{6-benzyl-7H-pyrrolo[2,3-c]pyridazin-3-yl}butyl)-2-oxo-1,2-dihydropyrimidin-4-yl]-2-phenylacetamide], the negative logarithm of the IC50 (pIC50) in experiment [1] is more than 7.00. In the experiment on A549 cells, the negative logarithm of the EC50 (pEC50) is 5.30 to 6.30.

As for `O=C(Cc1cccc(OC(F)(F)F)c1)Nc1nnc(CCCCc2cc3cc[nH]c3nn2)s1` [Example 63, N-[5-(4-{7H-pyrrolo[2,3-c]pyridazin-3-yl}butyl)-1,3,4-thiadiazol-2-yl]-2-[3-(trifluoromethoxy)phenyl]acetamide], the pIC50 in experiment [1] is 6.30 to 7.00. Besides, the pEC50 in the experiment with A549 cells was 5.30 to 6.30.
